Key:
[1] = molecular target: T1, recombinant human ALK5 (TGF-βR1) protein (Homo sapiens, UniProt P36897); assay: Biochemical ALK5 (TGF-βR1) assay to measure pKi (LANCE Ultra ULight kinase assay); settings: apparent pKi, converted from pIC50 using the Cheng-Prusoff equation
T1 construct: purchased Life Technologies PR9075A
T1 sequence (P36897 34-503): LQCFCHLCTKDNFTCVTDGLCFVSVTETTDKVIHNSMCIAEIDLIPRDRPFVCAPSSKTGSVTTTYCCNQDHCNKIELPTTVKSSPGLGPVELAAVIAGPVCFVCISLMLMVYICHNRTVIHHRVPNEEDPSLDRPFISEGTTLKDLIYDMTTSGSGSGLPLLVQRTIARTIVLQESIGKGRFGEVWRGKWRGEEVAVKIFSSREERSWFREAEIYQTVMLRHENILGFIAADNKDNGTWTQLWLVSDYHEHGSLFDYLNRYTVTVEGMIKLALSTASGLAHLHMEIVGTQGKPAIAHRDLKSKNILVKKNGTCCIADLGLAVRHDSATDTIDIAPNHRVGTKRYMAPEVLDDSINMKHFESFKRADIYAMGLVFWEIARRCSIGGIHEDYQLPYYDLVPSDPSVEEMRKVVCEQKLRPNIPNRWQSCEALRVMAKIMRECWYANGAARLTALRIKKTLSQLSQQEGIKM
Protocol: The assays were performed in a 384-well plate (24 columns×16 wells/rows). An Echo®550 Liquid Handler (Labcyte) was used to prepare various intermediate concentrations of the compound of Formula I in 100% DMSO. From the intermediate concentrations, a range of concentrations (from 10 μM to […] corresponding to volumes up to 105 nL) were prepared and ejected into a final assay plate to be used to create individual dose response curves. To a separate column within the assay plate, 105 nL of DMSO in each well was used to establish a maximum assay signal. […]
Next, 2 μL of 125 μM ATP (5× final, 125 μM ATP prepared in assay buffer with 2 mM DTT) was added to the incubated mixtures, covered with a MicroClime® Environmental Lid (Product No. LLS-0310, Labcyte) and immediately transferred to 37° C. […] The plate was then read on a Perkin Elmer EnVision Plate Reader using europium specific reader settings with excitation and emission wavelengths set to 320 or 340 nm and 665 nm, respectively.
For dose-response analyses, percent inhibition versus compound concentrations were plotted, and pIC50 values were determined from a 4-parameter robust fit model with GraphPad Prism V5 Software (GraphPad Software, Inc., La Jolla, Calif.). […] Results were expressed as pIC50 (negative logarithm of IC50) and subsequently converted to pKi (negative logarithm of dissociate constant, Ki) using the Cheng-Prusoff equation. […]

[2] = tested on: DSS-induced intestinal fibrosis; assay: Efficacy study in murine DSS-induced intestinal fibrosis model; type: in vivo, C57BL/6J mice; settings: oral gavage following the second of the 3 cycles of DSS; sacrifice at 6, 9 or 12 weeks
Protocol: The compound of Formula I is expected to slow, halt or reverse the progression of intestinal fibrosis in a murine colitis model. Six to 8-week old male C57BL/6J mice are tagged and weighed. The drinking water of the animals is treated with 2.5% dextran sulfate sodium (DSS) for 7 days to induce acute colitis, followed by 2 days of normal drinking water. Three, 3-week cycles of 2.5% DSS treatment (1 week of 2.5% DSS in water; 2 weeks of normal water) are then completed to induce intestinal fibrosis. Following the second of the 3 cycles of DSS administration, mice are treated with either vehicle control or the compound of Formula I at an appropriate amount and frequency via oral gavage (e.g., once daily). Animals are sacrificed at either 6, 9 or 12 weeks after the first DSS cycle, then distal, mid and proximal sections of the colon harvested for histologic analysis, RNA extraction and cytokine measurement.

[3] = tested on: intestinal fibrosis in an adoptive T-cell transfer model of colitis; assay: Efficacy study in adoptive T-cell transfer model of colitis; type: in vivo, CB17 SCID mice; settings: oral gavage once diarrhea and 10% body weight decrease observed; sacrifice 45 days after induction
Protocol: The compound of Formula I is expected to slow, halt or reverse the progression of intestinal fibrosis in an adoptive T-cell transfer model of colitis. Six- to 8-week old female CB17 SCID mice are tagged and weighed, then administered CD4^+ CD25^− CD62L^+ naïve T cells isolated from the spleens of Balb/C mice (IP; 1×10^6 cells) to induce colitis. Once diarrhea and a 10% or greater decrease in body weight are observed (typically around week 2), mice are treated with either vehicle control or the compound of Formula I at an appropriate amount and frequency via oral gavage (e.g., once daily). Animals are sacrificed 45 days after induction of colitis, then distal, mid and proximal sections of the colon harvested for histologic analysis, RNA extraction and cytokine measurement.

`C[C@@H]1CN(CCNc2cnc3ccc(-c4nc[nH]c4-c4cc(Cl)ccc4F)nc3c2)C[C@H](C)N1` [compound of Formula I, 6-(5-(5-chloro-2-fluorophenyl)-1H-imidazol-4-yl)-N-(2-((3S,5R)-3,5-dimethylpiperazin-1-yl)ethyl)-1,5-naphthyridin-3-amine] was tested, and the Ki [1] was 0.0398 to 0.316 nM, the intestinal fibrosis [2] was “slow, halt or reverse intestinal fibrosis” and the intestinal fibrosis [3] was “slow, halt or reverse intestinal fibrosis”.

— patent US20210387983A1, “CRYSTALLINE ALK5 INHIBITORS AND USES THEREOF” (THERAVANCE BIOPHARMA R&D IP, LLC, priority 2020, published 2021)
